{"source": "patent US20110288052A1", "about": "“NOVEL COMPOUNDS, PHARMACEUTICAL COMPOSITIONS CONTAINING SAME, AND METHODS OF USE FOR SAME” (priority 2008, published 2011)"}
{"system": "HCT116 cells", "test": "XTT cytotoxicity assay, HCT116 (H)", "assay_type": "cell-based", "conditions": "Homo sapiens, HCT-116", "description": "(§1) XTT Cytotoxicity Assay The XTT assay is a non-radioactive alternative for the [^51Cr] release cytotoxicity assay. XTT is a tetrazolium salt that is reduced to a formazan dye only by metabolically active, viable cells. The reduction of XTT is measured spectrophotometrically as OD490-OD650. To measure the cytotoxicity of specific compounds against cancer cells, 9×10^3 MCF-7 human breast cancer cells (shown in the tables as “(M)”), obtained from the American Type Culture Collection are plated per well in 96 well plates in DMEM medium with 10% fetal bovine serum, insulin, penicillin, and streptomycin. Following overnight culture at 37° C. and 5% CO2, the compounds to be tested, dissolved in DMSO, are added to the wells in 1 μl volume at the following concentrations: 80, 40, 20, 10, 5, 2.5, 1.25, and 0.625 μg/ml in triplicate. Additional concentrations are tested if required. 1 μl of DMSO is added to triplicate wells are the vehicle control. C75 is run at 40, 20, […], and 5 μg/ml in triplicate as positive controls. After 72 hours of incubation, cells are incubated for 4 hours with the XTT reagent as per manufacturer's instructions (Cell Proliferation Kit II (XTT) Roche). Plates are read at OD490 and OD650 on a Molecular Devices SpectraMax Plus Spectrophotometer. Three wells containing the XTT reagent without cells serve as the plate blank. XTT data are reported as OD490-OD650. Averages and standard error of the mean are computed using SOFTmax Pro software (Molecular Dynamics). The IC50 for the compounds is defined as the concentration of drug leading to a 50% reduction in OD490-OD650 compared to controls. The OD490-OD650 are computed by the SOFTmax PRO software (Molecular Devices) for each compound concentration. IC50 is calculated by linear regression, plotting the FAS activity as percent of control versus drug concentrations. Linear regression, best-fit line, r^2, and 95% confidence intervals are determined using Prism Version 3.0 (Graph Pad Software). The test was also run against OVCAR3 cells (“OV”), and HCT116 cells (“H”).", "units": {"IC50": "µg/mL"}}
{"smiles": "CCCCCCCCC1(C)SC(=O)C=C1OCC(=O)Nc1ccccc1", "note": "(stereo not drawn)", "IC50": 7.1}
{"smiles": "CCCCCCCCC1(C)SC(=O)C=C1OCC(=O)Nc1ccc(Cl)cc1C(F)(F)F", "note": "(stereo not drawn)", "IC50": 14}
{"smiles": "CCCCCCCC[C@]1(C)SC(=O)C=C1OCC(=O)Nc1ccccc1C(F)(F)F", "IC50": 15.6}
{"smiles": "CCCCCCCC[C@]1(C)SC(=O)C=C1OCC(=O)Nc1ccccc1OC(F)(F)F", "IC50": 78.8}
{"smiles": "CCCCCCCCC1(C)SC(=O)C=C1OCC(=O)Nc1cccc(C(F)(F)F)c1", "note": "(stereo not drawn)", "IC50": 7.6}
{"smiles": "CCCCCCCCC1(C)SC(=O)C=C1OCC(=O)Nc1cccc(OC(F)(F)F)c1", "note": "(stereo not drawn)", "IC50": 8}
{"smiles": "CCCCCCCCC1(C)SC(=O)C=C1OCC(=O)Nc1ccccc1SC", "note": "(stereo not drawn)", "IC50": 31.4}
{"smiles": "CCCCCCCCC1(C)SC(=O)C=C1OCC(=O)Nc1ccc(SC)cc1", "note": "(stereo not drawn)", "IC50": 11.5}
{"smiles": "CCCCCCCCC1(C)SC(=O)C=C1OCC(=O)Nc1ccc(Cl)cc1Cl", "note": "(stereo not drawn)", "IC50": 13.1}
{"smiles": "CCCCCCCCC1(C)OC(=O)C=C1OCC(=O)Nc1ccc(Cl)cc1", "note": "(stereo not drawn)", "IC50": 4.8}
{"system": "Enterococcus faecalis (ATCC # 29212)", "test": "Broth microdilution antimicrobial assay, E. faecalis", "assay_type": "cell-based", "conditions": "Enterococcus faecalis, ATCC29212; Mueller Hinton Broth; read-out: EF/MH (MIC)", "description": "(§2) Antimicrobial Properties A broth microdilution assay is used to assess the antimicrobial activity of the compounds. Compounds are tested at twofold serial dilutions, and the concentration that inhibits visible growth (OD600 at 10% of control) is defined as the MIC. Microorganisms tested include Staphylococcus aureus (ATCC # 29213), Enterococcus faecalis (ATCC # 29212), Pseudomonas aerpginosa (ATCC # 27853), and Escherichia coli (ATCC # 25922). The assay is performed in two growth media, Mueller Hinton Broth and Trypticase Soy Broth.\n(§3) A blood (Tsoy/5% sheep blood) agar plate is inoculated from frozen stocks maintained in T soy broth containing 10% glycerol and incubated overnight at 37° C. Colonies are suspended in sterile broth so that the turbidity matches the turbidity of a 0.5 McFarland standard. The inoculum is diluted 1:10 in sterile broth (Mueller Hinton or Trypticase soy) and 195 μl is dispensed per well of a 96-well plate. The compounds to be tested, dissolved in DMSO, are added to the wells in 5 μl volume at the following concentrations: 25, 12.5, 6.25, 3.125, 1.56 and 0.78 μg/ml in duplicate. Additional concentrations are tested if required. 5 μl of DMSO added to duplicate wells are the vehicle control. Serial dilutions of positive control compounds, vancomycin (E. faecalis and S. aureus) and tobramycin (E. coli and P. aerpginosa), are included in each run.\n(§4) After 24 hours of incubation at 37° C., plates are read at OD600 on a Molecular Devices SpectraMax Plus Spectrophotometer. Average OD600 values are computed using SOFTmax Pro Software (Molecular Devices) and MIC values are determined by linear regression analysis using Prism version 3.02 (Graph Pad Software, San Diego). The MIC is defined as the concentration of compound required to produce an OD600 reading equivalent to 10% of the vehicle control reading.", "units": {"MIC": "µg/mL"}}
{"smiles": "CCCCCCCCC1(C)OC(=O)C=C1OCC(=O)Nc1ccc(Cl)cc1", "note": "(stereo not drawn)", "MIC": 70}
{"system": "Enterococcus faecalis (ATCC # 29212)", "test": "Broth microdilution antimicrobial assay, E. faecalis", "assay_type": "cell-based", "conditions": "Mueller Hinton Broth", "description": "as §2, §3, §4"}
{"smiles": "CCCCCCCCC1(C)SC(=O)C=C1OCC(=O)Nc1ccccc1", "note": "(stereo not drawn)", "EF/MH (MIC)": "Neg"}
{"smiles": "CCCCCCCCC1(C)SC(=O)C=C1OCC(=O)Nc1ccc(Cl)cc1C(F)(F)F", "note": "(stereo not drawn)", "EF/MH (MIC)": "Neg"}
{"system": "Enterococcus faecalis (ATCC # 29212)", "test": "Broth microdilution antimicrobial assay, E. faecalis", "assay_type": "cell-based", "conditions": "Trypticase Soy Broth", "description": "as §2, §3, §4"}
{"smiles": "CCCCCCCCC1(C)SC(=O)C=C1OCC(=O)Nc1ccccc1", "note": "(stereo not drawn)", "EF/Tsoy (MIC)": "Neg"}
{"smiles": "CCCCCCCCC1(C)SC(=O)C=C1OCC(=O)Nc1ccc(Cl)cc1C(F)(F)F", "note": "(stereo not drawn)", "EF/Tsoy (MIC)": "Neg"}
{"smiles": "CCCCCCCCC1(C)OC(=O)C=C1OCC(=O)Nc1ccc(Cl)cc1", "note": "(stereo not drawn)", "EF/Tsoy (MIC)": "Neg"}
{"system": "OVCAR3 cells", "test": "XTT cytotoxicity assay, OVCAR3 (OV)", "assay_type": "cell-based", "conditions": "Homo sapiens, OVCAR-3", "description": "as §1", "units": {"IC50": "µg/mL"}}
{"smiles": "CCCCCCCCC1(C)SC(=O)C=C1OCC(=O)Nc1ccccc1", "note": "(stereo not drawn)", "IC50": 12.1}
{"smiles": "CCCCCCCCC1(C)SC(=O)C=C1OCC(=O)Nc1ccc(Cl)cc1C(F)(F)F", "note": "(stereo not drawn)", "IC50": 24}
{"smiles": "CCCCCCCC[C@]1(C)SC(=O)C=C1OCC(=O)Nc1ccccc1C(F)(F)F", "IC50": 24.1}
{"smiles": "CCCCCCCC[C@]1(C)SC(=O)C=C1OCC(=O)Nc1ccccc1OC(F)(F)F", "IC50": "> 80"}
{"smiles": "CCCCCCCCC1(C)SC(=O)C=C1OCC(=O)Nc1cccc(C(F)(F)F)c1", "note": "(stereo not drawn)", "IC50": 11}
{"smiles": "CCCCCCCCC1(C)SC(=O)C=C1OCC(=O)Nc1cccc(OC(F)(F)F)c1", "note": "(stereo not drawn)", "IC50": 11.6}
{"smiles": "CCCCCCCCC1(C)SC(=O)C=C1OCC(=O)Nc1ccccc1SC", "note": "(stereo not drawn)", "IC50": 43.8}
{"smiles": "CCCCCCCCC1(C)SC(=O)C=C1OCC(=O)Nc1ccc(SC)cc1", "note": "(stereo not drawn)", "IC50": 16.9}
{"smiles": "CCCCCCCCC1(C)OC(=O)C=C1OCC(=O)Nc1ccc(Cl)cc1", "note": "(stereo not drawn)", "IC50": 9.2}
{"system": "OVCAR3 cells", "test": "XTT cytotoxicity assay, OVCAR3 (OV)", "assay_type": "cell-based", "conditions": "Homo sapiens, OVCAR-3, unit given as ml", "description": "as §1", "units": {"IC50": "µg/mL"}}
{"smiles": "CCCCCCCCC1(C)SC(=O)C=C1OCC(=O)Nc1ccc(Cl)cc1Cl", "note": "(stereo not drawn)", "IC50": 64.5}
{"system": "MCF-7 human breast cancer cells", "test": "XTT cytotoxicity assay, MCF-7 (M)", "assay_type": "cell-based", "conditions": "MCF7, MCF-7, 72 hours", "description": "XTT Cytotoxicity Assay The XTT assay is a non-radioactive alternative for the [^51Cr] release cytotoxicity assay. XTT is a tetrazolium salt that is reduced to a formazan dye only by metabolically active, viable cells. The reduction of XTT is measured spectrophotometrically as OD490-OD650. To measure the cytotoxicity of specific compounds against cancer cells, 9×10^3 MCF-7 human breast cancer cells (shown in the tables as “(M)”), obtained from the American Type Culture Collection are plated per well in 96 well plates in DMEM medium with 10% fetal bovine serum, insulin, penicillin, and streptomycin. Following overnight culture at 37° C. and 5% CO2, the compounds to be tested, dissolved in DMSO, are added to the wells in 1 μl volume at the following concentrations: 80, 40, 20, 10, 5, 2.5, 1.25, and 0.625 μg/ml in triplicate. Additional concentrations are tested if required. 1 μl of DMSO is added to triplicate wells are the vehicle control. C75 is run at 40, 20, […], and 5 μg/ml in triplicate as positive controls. After 72 hours of incubation, cells are incubated for 4 hours with the XTT reagent as per manufacturer's instructions (Cell Proliferation Kit II (XTT) Roche). Plates are read at OD490 and OD650 on a Molecular Devices SpectraMax Plus Spectrophotometer. Three wells containing the XTT reagent without cells serve as the plate blank. XTT data are reported as OD490-OD650. Averages and standard error of the mean are computed using SOFTmax Pro software (Molecular Dynamics). The IC50 for the compounds is defined as the concentration of drug leading to a 50% reduction in OD490-OD650 compared to controls. The OD490-OD650 are computed by the SOFTmax PRO software (Molecular Devices) for each compound concentration. IC50 is calculated by linear regression, plotting the FAS activity as percent of control versus drug concentrations. Linear regression, best-fit line, r^2, and 95% confidence intervals are determined using Prism Version 3.0 (Graph Pad Software).", "units": {"IC50": "µg/mL"}}
{"smiles": "CCCCCCCCC1(C)SC(=O)C=C1OCC(=O)Nc1ccccc1", "note": "(stereo not drawn)", "IC50": 6.2}
{"smiles": "CCCCCCCCC1(C)SC(=O)C=C1OCC(=O)Nc1ccc(Cl)cc1C(F)(F)F", "note": "(stereo not drawn)", "IC50": 9.6}
{"smiles": "CCCCCCCC[C@]1(C)SC(=O)C=C1OCC(=O)Nc1ccccc1C(F)(F)F", "IC50": 17.6}
{"smiles": "CCCCCCCC[C@]1(C)SC(=O)C=C1OCC(=O)Nc1ccccc1OC(F)(F)F", "IC50": "> 80"}
{"smiles": "CCCCCCCCC1(C)SC(=O)C=C1OCC(=O)Nc1cccc(C(F)(F)F)c1", "note": "(stereo not drawn)", "IC50": 5.9}
{"smiles": "CCCCCCCCC1(C)SC(=O)C=C1OCC(=O)Nc1cccc(OC(F)(F)F)c1", "note": "(stereo not drawn)", "IC50": 6.4}
{"smiles": "CCCCCCCCC1(C)SC(=O)C=C1OCC(=O)Nc1ccccc1SC", "note": "(stereo not drawn)", "IC50": 26.9}
{"smiles": "CCCCCCCCC1(C)SC(=O)C=C1OCC(=O)Nc1ccc(SC)cc1", "note": "(stereo not drawn)", "IC50": 7.9}
{"smiles": "CCCCCCCCC1(C)SC(=O)C=C1OCC(=O)Nc1ccc(Cl)cc1Cl", "note": "(stereo not drawn)", "IC50": 16.8}
{"smiles": "CCCCCCCCC1(C)OC(=O)C=C1OCC(=O)Nc1ccc(Cl)cc1", "note": "(stereo not drawn)", "IC50": 6}
